Data as given in patent US8481691B2, “Method for selectively extracting membrane proteins using calixarenes” (Centre National de la Recherche Scientifique—CNRS, priority 2008, dated 2013).

Tests used:
BmrA [1] = molecular target: T1, BmrA (Bacillus subtilis, UniProt O06967); assay: Vanadate-sensitive ATPase activity of BmrA after solubilization; type: biochemical; settings: for ATPase activity of BmrA with solubilization: increasing detergent concentration; for ATPase activity of BmrA with solubilization / Effect on ATPase activity of BmrA: FIG. 9; for ATPase activity of BmrA after reconstitution in liposomes: after removal of the detergents; for Loss of ATPase activity of BmrA once solubilized: relative to BmrA activity in natural membranes; for Effect on ATPase activity of BmrA: 1 mg/ml
T1 construct: made in house; host or cells: E. coli C41 BL21(DE3), plasmid pET15b-BMRA; isolated membrane fraction
Excerpt: The solubilization tests take place as in FIG. 8 and the ATPase activity tests are described in example 11. The vertical dotted lines show the CMC of each compound. The black lozenges correspond to a test in which BmrA is solubilized with p(COOH)3—Ar4-o(C7H15) then reconstituted in lipids after removal of the detergent with biobeads (Bio-Rad) according to the procedure described in Lenoir et al..
The percentage of specific ATPase activity sensitive to vanadate (% SA or % VO4 sensitive Specific ATPase Activity) is evaluated for the following different cases: • BmrA Mb: activity of BmrA in natural membranes, • DDM sup./DDM: activity of BmrA in the DDM extract, • DDM sup./Lip.: activity of BmrA from the DDM extract and reconstituted in liposomes, • FC12 sup./FC12: activity of BmrA in the Foscholine 12 extract, • FC12 sup./Lip.: activity of BmrA from the Foscholine 12 extract and reconstituted in liposomes, • C4C7 sup./[…]: activity of BmrA in the calixarene C4C7 (in other words calix[4]arene-O-heptyloxy) extract, • C4C7 sup./Lip.: activity of BmrA from the calixarene C4C7 extract and reconstituted in liposomes.
FIG. 12 summarizes the results of an extraction successively using the calixarenes C4C3 then C4C7 (FIG. 12A) followed by purification by gel filtration chromatography (FIGS. 12B-E).
The ATPase activity is measured by evaluating the inorganic phosphate content (Pi) after 5 minutes of incubation at 37° C. The fraction of Pi produced by other ATPase activities is deducted by measuring the same activity in the presence of 1 mM of ortho vanadate which inhibits the ATPase activity of BmrA (for example as described in [10]).
The effect of the solubilization by the p(COOH)3—Ar4-o(CnH2n+1) series on the ATPase activity of BmrA was analyzed under the same conditions as in FIG. 8.
The effects of the solubilization on the activity of the BmrA protein were evaluated with various C4Cn calixarenes, in other words the p(COOH)3—Ar4-o(CnH2n+1) calixarenes, but also with the control detergents such as Foscholine 12 (FC12) and β-D-dodecyl maltopyranoside (DDM), then the extracts obtained (supernatant fractions) were dialyzed in the presence of liposomes in order to restore a membrane environment, which enables the recovery of the activity of the protein.

BmrA [2] = molecular target: T1, BmrA; assay: Solubilization of BmrA from enriched membrane fractions (centrifugation, SDS PAGE); type: biochemical, E. coli membrane fraction; settings: for Solubilization of BmrA (found in supernatant): detergent 10 mg/ml (1%), 2 mg proteins/ml, 2 hrs at 4° C., FIG. 7; for Solubilization of BmrA: FIG. 8
Excerpt: The gray and black dotted lines and the black line serve as a scale of the efficacy of the molecules to be solubilized. The “no det” lines signify “without detergent”.
The experimental conditions are those of FIG. 7, with the exception of the concentrations of the butyl, heptyl and dodecyl molecules which are as indicated in the figure, for which the g/L<->M correspondence is indicated in Table 2. The “no det” lines signify “without detergent”.
The competent bacteria C41 BL21(DE3) E. coli (Escherichia coli) were transformed with the plasmid pET15b-BMRA bearing the gene coding for BmrA and placed under the control of an inducible promoter and a gene coding for the protein conferring resistance to ampicillin. A positive clone was cultured in a liquid medium at 37° C. and 200 rpm in the presence of ampicillin until a semi-exponential growth phase. The expression of BmrA is induced by addition of 1 mM of isopropyl thio β-galactoside and continued at 25° C. for 4 hrs. The bacteria were harvested by centrifugation, disrupted in a French press, and the membrane fraction was isolated by a series of centrifugation stages at low and high speeds. The protein content was evaluated by colorimetry and set at 20 mg/ml (20 mM Tris-Cl pH 8.0, […] NaCl, 300 mM sucrose) before freezing and storage in liquid nitrogen. Before use, the membrane fraction is then rapidly thawed in water and maintained at 4° C. in ice.
The solubilization is effected at 4° C.

[3] = Critical Micellar Concentration estimated from surface tension data; type: physicochemical
Method: The effect of the molecules having an alkyl chain with 1 to 12 methylene groups (m, x axis in the figure) on the CMC is measured at a concentration of 10^−2 M, at pH 6.0 (solid circles) and 8.0 (open circles). Each point corresponds to the mean of three values, estimated from the data from FIG. 2.
(§1) The surfactant properties of the calixarenes of formula (I) are evaluated in a 1 ml sitting drop by means of a Kibron micro-depression instrument and using a stainless steel syringe and a Wilhelmy balance. The curves obtained are processed with the software Sigmaplot v11.
Critical Micellar Concentration (CMC) is understood to mean the concentration beyond which the concentration of the detergent molecules no longer increases since said molecules are involved in micelles (FIG. 13). […] Conversely, when the alkyl chains include more than 8 methylene groups, the resulting CMC decreases appreciably to 0.15 mM when the pH increases from 6 to 8.

[4] = Aggregation state / apparent diameter of aggregates; type: physicochemical
[5] = Surface tension measurement of water (surfactant properties); type: physicochemical
Excerpt: The effect of the derivatives of calix[4]arene containing alkyl chains with 1 to 12 carbon atoms on the surface tension of water was followed as a function of the concentration of said derivatives (molar M or mol/L) at pH 6.0 (not exposed) and 8.0 (exposed). The surface-active properties of DDM (β-D-dodecyl malto-pyranoside) are also shown in this figure. Each point corresponds to the mean of three values.
The effect of the molecules containing an alkyl chain having from 1 to 12 methylene groups (n, x axis in FIG. 3) on the surface tension of water was measured at a concentration of 10^−2M, at pH 6.0 (open circles) and at pH 8.0 (squares). Each point corresponds to the mean of three values.
as §1

[6] = Modulation of surfactant potential by amino acids (surface tension); type: physicochemical; settings: compound 10^−2 M, pH 8.0
Method: The compound p(COOH)3—Ar4-o(C7H15) is present at a concentration of 10^−2 M whereas that of the amino acids vary as indicated. The surface tension is measured at pH 8.0. The amino acids are indicated by their three-letter code: Glu=glutamic acid, Trp=tryptophan, Asn=asparagine, Gly=glycine, Ala=alanine, Ser=serine, Phe=phenylalanine, Leu=leucine, Pro=Proline, Lys=lysine, His=histidine, Arg=arginine. Each point corresponds to the mean of three values.
as §1

T1 sequence (O06967 whole entry): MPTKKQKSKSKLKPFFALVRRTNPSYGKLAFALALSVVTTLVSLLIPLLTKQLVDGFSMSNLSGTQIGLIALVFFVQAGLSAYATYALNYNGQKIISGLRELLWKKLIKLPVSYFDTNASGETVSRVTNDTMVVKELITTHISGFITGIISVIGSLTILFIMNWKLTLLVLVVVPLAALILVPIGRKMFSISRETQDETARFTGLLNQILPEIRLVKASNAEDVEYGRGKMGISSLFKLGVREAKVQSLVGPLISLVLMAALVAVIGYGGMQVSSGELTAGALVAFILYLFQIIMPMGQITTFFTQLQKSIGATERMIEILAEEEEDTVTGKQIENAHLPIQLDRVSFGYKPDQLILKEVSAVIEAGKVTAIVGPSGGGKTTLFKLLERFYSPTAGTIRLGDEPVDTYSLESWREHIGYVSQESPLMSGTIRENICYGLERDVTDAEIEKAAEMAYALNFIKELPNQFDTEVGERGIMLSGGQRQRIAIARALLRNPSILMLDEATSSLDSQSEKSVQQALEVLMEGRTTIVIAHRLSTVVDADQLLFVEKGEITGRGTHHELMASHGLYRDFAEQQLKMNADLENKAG

Molecule: CCCCCCCCCCCCOCCOCCOCCOCCOCCOCCOCCOCCO [C12E8]
- ATPase activity of BmrA with solubilization (BmrA [1]): decreases with the solubilization

Molecule: CCCCCCCCCCCCO[C@@H]1O[C@H](CO)[C@@H](O[C@H]2O[C@H](CO)[C@@H](O)[C@H](O)[C@H]2O)[C@H](O)[C@H]1O [DDM, n-dodecyl-β-D-maltopyranoside]
- Solubilization of BmrA (found in supernatant) (BmrA [2]): more pronounced
- ATPase activity of BmrA after reconstitution in liposomes (BmrA [1]; FIG. 11): recovered
- Loss of ATPase activity of BmrA once solubilized (BmrA [1]; FIG. 11): 95%

Molecule: CCCCCCCCCCCCOP(=O)([O-])OCC[N+](C)(C)C [FC12, n-dodecylphosphocholine]
- Solubilization of BmrA (found in supernatant) (BmrA [2]): complete
- ATPase activity of BmrA after reconstitution in liposomes (BmrA [1]; FIG. 11): recovered
- ATPase activity of BmrA with solubilization (BmrA [1]): decreases with the solubilization
- Loss of ATPase activity of BmrA once solubilized (BmrA [1]; FIG. 11): 99%

Molecule: COc1c2cccc1Cc1cc(CC(=O)O)cc(c1O)Cc1cc(CC(=O)O)cc(c1O)Cc1cc(CC(=O)O)cc(c1O)C2 [compound 5a, 5,11,17 tris-[(carboxylato)methyl]25-mono-methyloxy 26,27,28 tris-hydroxycalix[4]arene]
- CMC [3]: >1.5 mM
- Solubilization of BmrA (found in supernatant) (BmrA [2]): No solubilization
- Apparent diameter (nm) ([4]; pH 2): 950 nm
- Apparent diameter (nm) ([4]; pH 4): 340 nm
- Apparent diameter (nm) ([4]; pH 8): 270 nm

Molecule: CCCCOc1c2cccc1Cc1cc(CC(=O)O)cc(c1O)Cc1cc(CC(=O)O)cc(c1O)Cc1cc(CC(=O)O)cc(c1O)C2 [compound 5b, 5,11,17 tris-[(carboxylato)methyl]25-mono-butyloxy 26,27,28 tris-hydroxycalix[4]arene]
- Solubilization of BmrA (found in supernatant) (BmrA [2]): increases progressively
- Apparent diameter (nm) ([4]; pH 2): 500 nm
- Apparent diameter (nm) ([4]; pH 6): 145 nm

Molecule: CCCCCCOc1c2cccc1Cc1cc(CC(=O)O)cc(c1O)Cc1cc(CC(=O)O)cc(c1O)Cc1cc(CC(=O)O)cc(c1O)C2 [compound 5c]
- Solubilization of BmrA (found in supernatant) (BmrA [2]): more pronounced
- Apparent diameter (nm) ([4]; pH 2): 850 nm
- Apparent diameter (nm) ([4]; pH 6): 400 nm

Molecule: CCCCCCCCCCCCOc1c2cccc1Cc1cc(CC(=O)O)cc(c1O)Cc1cc(CC(=O)O)cc(c1O)Cc1cc(CC(=O)O)cc(c1O)C2 [compound 5d, 5,11,17 tris-[(carboxylato)methyl]25-mono-dodecyl 26,27,28 tris-hydroxycalix[4]arene]
- CMC [3]: ~0.15 mM
- Critical Micellar Concentration (CMC) [3]: 0.15 mM
- Solubilization of BmrA (BmrA [2]; 1 mg/ml): rather effectively
- Solubilization of BmrA (BmrA [2]; at CMC of 0.15 mM (0.1 g/L)): no solubilization
- Effect on ATPase activity of BmrA (BmrA [1]): does not lead to inactivation
- Apparent diameter (nm) ([4]; pH 2): 880 nm
- Apparent diameter (nm) ([4]; pH 6): 190 nm
- Surface tension plateau relative to initial surface tension ([5]; 10^−2 M, pH 8.0, FIG. 3): half the initial surface tension
- Surfactant properties (ability to decrease the surface tension of water) ([5]; as a function of concentration, FIG. 2): surfactant properties close to those of DDM

Molecule: calix[4]arene-O-heptyloxy [C4C7]
- Effect of amino acid on surface tension ([6]; alanine, phenylalanine, leucine): amplified
- Effect of amino acid on surface tension ([6]; glutamic acid or asparagine): No effect
- Effect of amino acid on surface tension ([6]; glycine): moderate effect
- Effect of amino acid on surface tension ([6]; positively charged amino acids histidine, lysine, arginine, listed as n=7): very pronounced
- Effect of amino acid on surface tension ([6]; positively charged amino acids histidine, lysine, arginine, listed as p(COOH)3—Ar4-o(C7H15)): easily increased
- CMC [3]: ~1.5 mM
- Critical Micellar Concentration (CMC) [3]: about 1.5 mM
- Solubilization of BmrA (BmrA [2]; 1 mg/ml): rather effectively
- Effect on ATPase activity of BmrA (BmrA [1]): does not lead to inactivation
- ATPase activity of BmrA preserved (BmrA [1]; C4C3 and C4C7 used successively, FIG. 11): about 50%
- ATPase activity of BmrA fraction after gel filtration (BmrA [1]; extracted with C4C7, gel filtration in the presence of FC12, fraction a FIG. 12E): recovered active
- ATPase activity of BmrA fraction reconstituted in liposomes (BmrA [1]; extracted with C4C7, gel filtration, then liposomes, fraction b FIG. 12E): elevated ATPase activity was recovered
